Test results as given in US20150247149A1, “Detecting and Treating Liver Damage” (The Regents of the University of California, priority 2012, published 2015).

Key:
HUVECs [1] = test: HUVEC tube formation assay; format: cell-based, human; conditions: supernatants from HepG2/primary rat hepatocytes incubated with FFA up to 24 h; VEGF-A positive control
Experimental: HUVECs (0.5-1×10^5 cells per well) were seeded onto a coated 24-well plate culture dishes with 200 μl/cm2 (thick gel method) of Matrigel (BD, Franklin Lakes, N.J., USA) and cultured in EBM-2 basal medium supplemented with 1.1% of streptomycin and penicillin in the presence of 100 ng/mL of VEGF (Peprotech, Rocky Hill, N.J., USA), hepatocytes-derived MPs, MP-free supernatant or conditioned supernatant collected after 24 hours of treatment with FFAs. In selective studies, a specific inhibitor for RhoA-ROCK (Y27632, 10 μM) was used in association with MPs in the treatment of endothelial cells. For the ex vivo studies, PFP isolated from different groups of mice (chow, HF/HCarb, MCD fed mice and mice injected with control RNA, VNN1 siRNA or PBS as vehicle) were ultracentrifuged at 100,000 g for 1 h at 10° C. to pellet the blood MPs. HUVECs were treated with MPs (or blood pure MPs) and incubated for 5 h at 37° C. Tube formation was investigated by using an inverted microscope at 4× magnification and images were captured. Tube formation image analysis was assessed by using Wimtube software (Wimasis, Munich, Germany) and the values referred to total tube length (pixel) were used for statistical and data analysis.

HUVECs [2] = test: HUVEC migration (Boyden's chamber chemotaxis, wound healing); format: cell-based, human; conditions: supernatants from hepatocytes incubated with FFA up to 24 h; VEGF-A positive control
Experimental: In vitro migration studies have been performed by using human umbilical cell endothelial cells (HUVECs). Wound healing assay was performed to analyze chemokinesis (non-oriented migration) by using collagen-coated 6-well culture plate, where a silicon elastomer (PDMS) strip was placed vertically to the bottom of every well to create the artificial wound. HUVECs were plated and grown until reaching the complete confluence. HUVECs were treated with EBM-2 supplemented with 100 ng/mL of VEGF (Peprotech, Rocky Hill, N.J., USA), hepatocytes-derived MPs, MP-free supernatant or supernatant collected after 24 hours of treatment with FFAs. The strips were removed carefully and migration of cells was detected by a confocal microscope, capturing one picture per field every 10 minutes for 48 hours. Mitomycin (1 μg/ml) was used to inhibit cell proliferation during wound healing assay. Data were analyzed by using Wimscratch software (Wimasis, Munich, Germany) in order to get the total cell-covered area (pixel). Boyden's chamber assay was performed to analyze chemotaxis (oriented migration) by using cell culture inserts 8 μm pore size (Millipore, Billerica, Mass., USA) and 24-well plate. Each well was filled with 500 μl of serum free EBM-2 media in presence or absence of the following chemoattractants: 100 ng/mL VEGF; hepatocytes-derived MPs; MP-free supernatant or conditioned supernatant. The inserts were placed on top of each well and 150 μl of cell suspension (5×10^4 cells) was added. Plates were incubated overnight at 37° C., and then the filters were removed and stained with Vectashield mounting medium with 4′,6-diamino-2-phenylindole (DAPI) (Vector Labs, Burlingame, Calif., USA).
Migrated cells were detected with a fluorescence microscope and number per field of their nuclei was counted. For the ex vivo studies, PFP isolated from different groups of mice (chow, HF/HCarb, MCD fed mice and mice injected with control siRNA, VNN1 siRNA or PBS as vehicle) were ultracentrifuged at 100,000 g for 1 h at 10° C. to pellet the blood MPs.

[3] = test system: HepG2 and primary rat hepatocytes; test: Release of Annexin V-positive MPs from hepatocytes (flow cytometry); format: cell-based, human (HepG2); rat (primary hepatocytes); conditions: hepatocytes incubated with 0.25 mM FFA up to 24 h, vs controls (FIGS. 2D, 2F, 9)
Experimental: For microparticles (MPs) isolation, HepG2 and primary rat hepatocytes were seeded onto a 100 mm dish and cultured until reaching 80-85% of confluence. Cells were incubated with 0.25 mM of palmitic, stearic, oleic or linoleic acid (FFA) in serum-free DMEM, supplemented with 1.1% penicillin and streptomycin, 1% endotoxin-free bovine serum albumin (BSA), for up to 24 h. […] The uptake of FFAs from hepatocytes was evaluated by Oil red-O staining kit (Cayman, Ann Arbor, Mich., USA) according to the manufacturer instruction. To determine the effect of caspase 3 activity, hepatocytes were treated with a selective caspase 3 inhibitor, Ac-DEVD-CHO (BD Pharmingen, Franklin Lakes, N.J., US). Control cells were incubated with the same serum-free media in association to the vehicle that was used to dissolve the FFAs. After 24 h, the supernatant were collected and centrifuged twice at 3,000 rpm for 15 minutes to remove cell debris and aggregates. The supernatant was then transferred to new tubes and ultracentrifuged at 100,000 g for 90 minutes at 10° C., to avoid contamination of exosomes.
The supernatant was collected in new tubes and used as a MP-free control and the pelleted MPs were resuspended in 200 μl of PBS for flow cytometry or in 500 μl of EGM-2 growth medium for subsequent in vitro studies. The concentration of microparticles μg/mL was determined by the BCA protein assay and different concentrations of MPs (50, 125, 250 and 500 μg/mL) were used to perform the dose-dependent angiogenesis in vitro assays. For selected purposes, in particular for the characterization analyses, crude MPs were purified by 10-70% sucrose gradient ultracentrifugation at 150,000 g for 18 h at 10° C., collected as fractions in new tubes. […]
Flow cytometry analyses for microparticles (or endothelial cells) detection were performed by using BD LSRII Flow Cytometer System (BD Biosciences, San Jose, Calif., USA) and the data were analyzed using FlowJo software (TreeStar Inc., Ashland, Oreg., USA). […]

tube formation induced by cell-free supernatants of FFA-treated hepatocytes (HUVECs [1]) | endothelial cell oriented (chemotaxis) and non-oriented migration induced by cell-free supernatants of FFA-treated hepatocytes (HUVECs [2]) | Structure (SMILES) | Annexin V positive MPs in supernatants (MP formation/release) [3]
marked increase | marked increase | CCCCCCCCCCCCCCCC(=O)O [palmitic acid] | marked increase
not | not | CCCCCCCC/C=C\CCCCCCCC(=O)O [oleic acid] | failed to induce any increase
